# Source: US20070093448A1, “Complexes that consist of vitamin D compounds or analogs thereof with a 5Z,7E,10(19)-triene system and methylated derivatives of beta-cyclodextrin” (priority 2005, published 2007)
# Marks after values point to notes of the source that are not given here.
# Legend:
# [1] = Isomerization to the previtamin in the complexing with cyclodextrins (HPLC); assay type: physicochemical
# Procedure: It is stirred for 2 hours at 22° C. and for 2 hours at 0° C. The solid is suctioned off and washed with 5 ml of cold water. After drying, 1.73 g (90% of theory) is obtained as a white solid. After HPLC (Stat. phase Chiracel JHRH 150×4.6 mm ID, detection 244 nm, eluant water/acetonitrile, flow: 1 ml/minute, gradient t0=70+30 v/v, linear increase of the gradient over 10 minutes t10 min to 60+40 v/v, isocratic t10 min-30 min 60+40 v/v), the solid, in addition to ergocalciferol (tRet.=26 minutes), contains 24% of the previtamin form (tRet.=23 minutes).
# 10 mg (0.024 mmol, MW 416.65) of calcitriol (dissolved in 100 μl of ethanol) is added in drops to the clear solution over 10 minutes. It is stirred for 2 hours at 22° C. and for 2 hours at 0-3° C., the solid is filtered off, and it is washed 2 times with 100 μl each of cold water. After drying at 20° C. and 0.5 mbar (24 hours), 26.6 mg of calcitriol-β-CD complex (71.5% of theory) is obtained. After the solid is dissolved in methanol and after an HPLC study (Stat. Phase Chiracel JHRH 150×4.6 mm ID, detection 244 nm, eluant water/acetonitrile, flow: 1 ml/minute, gradient t0=70+30 v/v, linear increase of the gradient over 10 minutes t10 min to 60+40 v/v, isocratic t10 min-30 min 60+40 v/v), the solid contains 23% of the previtamin form (tRet.=12 minutes) in addition to calcitriol (tRet.=17 minutes).
# At 25° C., 100 mg (0.21 mmol) of (thiazol-2-yl)-26,27-dinor-9,10-secocholesta-5,7,10(19)-triene-1,3,25-triol (dissolved in 0.5 ml of ethanol) is added. It is stirred for 2 hours at room temperature, then for 2 hours at 0° C. The solid is filtered off, washed with 1 ml of cold water and dried. 290 mg (85% of theory) of solid is obtained. The content of the solid in the previtamin (compound 2) is 20% (HPLC, Stat. Phase Chiracel JHRH 150×4.6 mm ID, detection 244 nm, eluant water/acetonitrile, flow: 1 ml/minute, gradient to =70+30 v/v, linear increase of the gradient over 10 minutes t10 min to 60+40 v/v, isocratic t10 min-30 min 60+40 v/v, tRef. Compound 2: 11.65 minutes, tRef. Compound 1: 18.19 minutes). The sample preparation is carried out by dissolving the complex in 100% methanol.
# For analytical study, the complexes can be dissolved in methanol or DMF and can be used in these solutions for the HPLC analysis (see 2.1). The content of the complexes that are obtained can be determined in comparison to the pure substance.
# [2] = Stability of the DIMEB complex from Example 3 a) 1 and the non-complexed active ingredient; assay type: physicochemical
# Excerpt: In Table 4 below, the stabilities of the DIMEB complex from Example 3 a) 1. and the non-complexed active ingredient are compiled: […]
# [3] = Storage of compound 1 at room temperature; assay type: physicochemical; conditions: after four months at room temperature
# [4] = Cyclodextrin solubility in water; assay type: physicochemical
# [5] = cited from earlier work
# [6] = cited from earlier work; remark: listed apart in the source
# [7] = Exp. 10: 15 d/40° C. aqueous, 80 μg of DIMEB complex per ml, compound 1 20 μg per ml
# [8] = Exp. 11: 15 d/60° C. aqueous, 80 μg of DIMEB complex per ml, compound 1 20 μg per ml
# [9] = Exp. 12: 15 d/80° C. aqueous, 80 μg of DIMEB complex per ml, compound 1 20 μg per ml
# [10] = Exp. 13: 30 d/40° C. aqueous, 80 μg of DIMEB complex per ml, compound 1 20 μg per ml
# [11] = Exp. 14: 30 d/60° C. aqueous, 80 μg of DIMEB complex per ml, compound 1 20 μg per ml
smiles,measurement,setting,value
"C=C1/C(=C\C=C2/CCC[C@]3(C)[C@@H]([C@H](C)CCCC(C)(C)O)CC[C@@H]23)C[C@@H](O)C[C@@H]1O [Calcitriol, (5Z,7E)-(1S,3R)-9,10-secocholesta-5,7,10(19)-triene-1,3,25-triol]",previtamin formation / isomerization (in words),[1],do not show any significant previtamin formation
same,% Previtamin (in Solution),"[1]; Table 1, without cyclodextrin",0.3%
"C=C1/C(=C\C=C2/CCC[C@]3(C)[C@@H]([C@H](C)CCC[C@H](O)c4nccs4)CC[C@@H]23)C[C@@H](O)C[C@@H]1O [Compound 1, (thiazol-2-yl)-26,27-dinor-9,10-secocholesta-5,7,10(19)-triene-1,3,25-triol]",% Previtamin (in Solution),"[1]; Table 2, compound 1 without CD",0.2 (in %
same,% Previtamin,"[1]; Table 3, compound 1 without CD",0.3%
same,By-Products,[2]; Exp. 2: 30 d 40° C.,3.08%
same,Purity,[2]; Exp. 2: 30 d 40° C.,96.08%
same,By-Products,[2]; Exp. 3: 3 d/80° C./75% rel F.,77.45%
same,Purity,[2]; Exp. 3: 3 d/80° C./75% rel F.,22.55%
same,By-Products,[2]; Exp. 4: 7 d/80° C./75% rel F.,95.34%
same,Purity,[2]; Exp. 4: 7 d/80° C./75% rel F.,4.66%
same,By-Products,[2]; Exp. 5: 15 d/40° C./75% rel F.,2.9%
same,Purity,[2]; Exp. 5: 15 d/40° C./75% rel F.,96.61%
same,By-Products,[2]; Exp. 6: 15 d/60° C./75% rel F.,2.96%
same,Purity,[2]; Exp. 6: 15 d/60° C./75% rel F.,96.34%
same,By-Products,[2]; Exp. 7: 15 d/80° C./75% rel F.,100%
same,Purity,[2]; Exp. 7: 15 d/80° C./75% rel F.,0%
same,By-Products,[2]; Exp. 8: 30 d/40° C./75% rel F.,3.00%
same,Purity,[2]; Exp. 8: 30 d/40° C./75% rel F.,96.7%
same,By-Products,[2]; Exp. 9: 30 d/60° C./75% rel F.,2.98%
same,Purity,[2]; Exp. 9: 30 d/60° C./75% rel F.,96.23%
same,By-Products,[2]; [7],2.92** %
same,Purity,[2]; [7],92.78%
same,By-Products,[2]; [8],18.69** %
same,Purity,[2]; [8],77.12%
same,By-Products,[2]; [9],96.72** %
same,Purity,[2]; [9],3.28%
same,By-Products,[2]; [10],3.20** %
same,Purity,[2]; [10],91.96%
same,By-Products,[2]; [11],37.26** %
same,Purity,[2]; [11],59.76%
same,By-Products,[2]; Start,3%
same,Purity,[2]; Start,96.12%
same,previtamin content,[3],about 2%
same,content,[3]; in comparison to fresh samples or samples stored under inert conditions,60%
"COC[C@H]1O[C@@H]2O[C@H]3[C@H](O)[C@@H](OC)[C@@H](O[C@H]4[C@H](O)[C@@H](OC)[C@@H](O[C@H]5[C@H](O)[C@@H](OC)[C@@H](O[C@H]6[C@H](O)[C@@H](OC)[C@@H](O[C@H]7[C@H](O)[C@@H](OC)[C@@H](O[C@H]8[C@H](O)[C@@H](OC)[C@@H](O[C@H]1[C@H](O)[C@H]2OC)O[C@@H]8COC)O[C@@H]7COC)O[C@@H]6COC)O[C@@H]5COC)O[C@@H]4COC)O[C@@H]3COC [DIMEB, Heptakis-(2,6-di-O-methyl)-β-cyclodextrin]","CD-Water Solubility (g/100 ml), (25° C.)",[4],25 g/100 ml
same,effects in intravenous administration,[5],hemolytic effects
same,solubility of the DIMEB,"[6]; Saenger et al. 2002, Uekama, Irie 1987",60 g/100 ml of water
same,solubility in water,"[6]; at 20° C., Saenger et al. 2002",> 50 g/100 ml of water
same,solubility in water while being heated,"[6]; while being heated, Saenger et al. 2002",< 1 g/100 ml
"C=C1CC[C@H](O)C/C1=C/C=C1\CCC[C@]2(C)[C@@H]([C@H](C)/C=C/[C@H](C)C(C)C)CC[C@@H]12 [Ergocalciferol, (5Z,7E,22E)-(3S)-9,10-secoergosta-5,7,10(19),22-tetraen-3-ol]",previtamin formation / isomerization (in words),[1],do not show any significant previtamin formation
same,% Previtamin (in Solution),"[1]; Table 1, without cyclodextrin",0.2%
COC[C@H]1O[C@@H]2O[C@H]3[C@H](OC)[C@@H](OC)[C@@H](O[C@H]4[C@H](OC)[C@@H](OC)[C@@H](O[C@H]5[C@H](OC)[C@@H](OC)[C@@H](O[C@H]6[C@H](OC)[C@@H](OC)[C@@H](O[C@H]7[C@H](OC)[C@@H](OC)[C@@H](O[C@H]8[C@H](OC)[C@@H](OC)[C@@H](O[C@H]1[C@H](OC)[C@H]2OC)O[C@@H]8COC)O[C@@H]7COC)O[C@@H]6COC)O[C@@H]5COC)O[C@@H]4COC)O[C@@H]3COC [TRIMEB],"CD-Water Solubility (g/100 ml), (25° C.)",[4],200 g/100 ml
"OC[C@H]1O[C@@H]2O[C@H]3[C@H](O)[C@@H](O)[C@@H](O[C@H]4[C@H](O)[C@@H](O)[C@@H](O[C@H]5[C@H](O)[C@@H](O)[C@@H](O[C@H]6[C@H](O)[C@@H](O)[C@@H](O[C@H]7[C@H](O)[C@@H](O)[C@@H](O[C@H]8[C@H](O)[C@@H](O)[C@@H](O[C@H]9[C@H](O)[C@@H](O)[C@@H](O[C@H]1[C@H](O)[C@H]2O)O[C@@H]9CO)O[C@@H]8CO)O[C@@H]7CO)O[C@@H]6CO)O[C@@H]5CO)O[C@@H]4CO)O[C@@H]3CO [γ-Cyclodextrin, γ-cyclodextrin]",Cyclodextrin Solubility in Water (20° C.),"[6]; 20° C., source Szejtly 1988",23.3 g/100 ml
